Measured values reported in patent US7144710B2, “Method for detecting inflammation and inflammatory conditions” (Trustees of Dartmouth College, priority 2000, dated 2006).

Legend:
[1] = tested on: monocyte CD163 expression; experiment: CD163 expression on monocytes of cultured PBMCs, staining and flow cytometric analysis; format: cell-based, human; conditions: for CD163 expression of cytokine given in combination with DEX over DEX treatment alone: PBMCs 24 hours; for increase of monocyte CD163 expression: PBMCs treated 24 hours, agent alone, 200 nM DEX, vs control media, p<0.01
Procedure: To assess whether different cytokines could influence CD163 expression, freshly isolated PBMCs were cultured for 24 hours in the presence of various cytokines, 200 nM DEX (as a positive control for CD163 upregulation), or control media. The cells were then subjected to staining and flow cytometric analysis.
For cytokine treatment studies, isolated PBMCs were suspended in hepes buffered RPMI 1640/0.05% gentamicin/10% FBS at a concentration of 2.0×10^6 to 2.5×10^6 cells/ml and cultured in 96 well plates at 37° C. and 5% CO2 in the presence of various mediators (Table 1). Mononuclear cells were stained for flow cytometric analysis after 24 hours in culture unless otherwise indicated. This enhanced cell recovery because monocytes, which initially adhere to plastic vessels, transiently detach from culture wells at 24–48 hours.
All staining procedures were performed at 4 C. Briefly, cultured PBMCs were incubated with normal human IgG (6 mg/ml) to block Fc receptor-specific binding of mAbs and 30 μg/ml of the isotype control mAb P3 or a saturating amount of mAb MAC2-48 (20 μg/ml) for one hour. Cells were then washed and stained for one hour with 17.5 μg/ml FITC labeled goat F(ab=)2 anti-mouse Ig. The cells were again washed and fixed with 1% methanol free formalin.
Cell fluorescence of monocytes gated using forward and side scatter was analyzed using a Becton Dickenson FACScan (Franklin Lakes, N.J.). Mean fluorescence intensity (MFI) was calculated by subtracting the MFI of the P3 stained mononuclear cells from the MFI of the corresponding Mac 2-48 stained cells.

monocyte surface CD163 [2] = experiment: Shedding of monocyte surface CD163 in vitro; format: cell-based, human; conditions: for shedding of surface CD163 from cells pre-treated with glucocorticoids plus LPS: subsequent treatment with the agent
Procedure: Therefore, like PMA, LPS is capable of inducing CD163 shedding. LPS-induced shedding occurred even with monocytes that had been cultured for 48 hours in DEX and thus had 5- to 10-fold higher levels of surface CD163 than freshly isolated monocytes. […] This LPS-conferred resistance to subsequent LPS-induced shedding of CD163 is similar to reported endotoxin pre-conditioning for resistance to subsequent inflammatory insults.

soluble CD163 in plasma = experiment: Soluble CD163 in plasma of healthy volunteers after LPS bolus infusion (ELISA); format: in vivo, human; conditions: 4 ng/kg bolus infusion of LPS
Procedure: In order to provide for use of CD163 as a biomarker of inflammation, a method for detection of CD163 in biological samples such as plasma was developed. The assay of detection is an ELISA assay using a CD163-specific antibody such as MAC2-158 or MAC2-48 as the CD163 capture antibody and the commercially available biotinylated antibody RM3/1 as the CD163 detection antibody. Briefly, plates were coated with purified MAC2-158 or MAC2-48 antibody and incubated overnight at 4 C. After washing, non-specific binding was blocked by adding blocking buffer to each plate well and incubating for 30 minutes at room temperature. […]
In order to more closely mimic the in vivo inflammatory response to infection in a more controlled setting than the cardiac patients described above, healthy volunteers were administered a 4 ng/kg bolus infusion of LPS and monitored the levels of soluble CD163 in plasma. […] Levels of CD163 in plasma were measured using the assay of the present invention. […] Changes in levels of known acute phase proteins, glucocorticoids, and pro- and anti-inflammatory cytokines were also monitored in order to determine if their levels correlated with the appearance of soluble CD163 in plasma. […]
ELISA plates were coated, 100 μl per well, with 5 μg/ml purified MAC2-158 (coating buffer of 0.1 M NaHCO30.5 M NaCl, adjusted to pH 8.4 with HCl). […] The plates were read on a spectrophotometer at […].

[3] = tested on: CRP, TNFA, IL-6, IL-10, cortisol in plasma; experiment: Plasma acute phase proteins, glucocorticoids and cytokines of healthy volunteers after LPS bolus infusion; format: in vivo, human; conditions: post LPS administration
Procedure: In order to more closely mimic the in vivo inflammatory response to infection in a more controlled setting than the cardiac patients described above, healthy volunteers were administered a 4 ng/kg bolus infusion of LPS and monitored the levels of soluble CD163 in plasma. […] Plasma samples were taken at baseline (before administration of LPS), and then at various time points after LPS infusion up to 72 hours after infusion initiation. Levels of CD163 in plasma were measured using the assay of the present invention. […] In the one volunteer where levels had declined at […], levels remained elevated up to 4 hours before returning to baseline levels by 8 hours. Changes in levels of known acute phase proteins, glucocorticoids, and pro- and anti-inflammatory cytokines were also monitored in order to determine if their levels correlated with the appearance of soluble CD163 in plasma. […] Plasma levels of TNFA, IL-6 and IL-10, all known to be produced following LPS infusion, peaked at 1, 2, and 4 hours post LPS administration, respectively. […] Therefore, CD163 acts as an early signaling event in the inflammatory response cascade.

CD163 expression = experiment: Monocytes cultured with LPS and/or DEX, immunofluorescence detection of surface CD163; format: cell-based, human; conditions: monocytes cultured with LPS alone
Procedure: In addition to testing the effects of cytokines in combination with glucocorticoids on levels of CD163, studies were performed to examine the effects of glucocorticoids in combination with lipopolysaccharide (LPS). […] However, when monocytes were cultured for 48 hours with DEX combined with LPS, their was a synergistic increase in CD163 expression, where the effect of DEX alone was increased by more than 2-fold when LPS treatment was added.

monocyte surface CD163 [4] = conditions: Droste et al. 1999; blocked by protease inhibitors; cited from earlier work
CD163 = experiment: Western blots of monocyte lysates; format: cell-based, human

GM-CSF
CD163 expression of cytokine given in combination with DEX over DEX treatment alone [1]: does not enhance CD163 expression

lipopolysaccharide [LPS]
time to shedding of monocyte surface CD163 (monocyte surface CD163 [2]; in vitro): ≤ 2 h | shedding of surface CD163 from cells pre-treated with glucocorticoids plus LPS (monocyte surface CD163 [2]): largely resistant to shedding | increase of soluble CD163 levels in plasma compared to baseline (soluble CD163 in plasma): ≤ 7 fold | time at which plasma cortisol began to increase [3]: 4 h | time by which plasma CRP increased [3]: ≤ 8 h | time of peak of plasma CRP [3]: 24 h | time of peak of plasma IL-6 [3]: 2 h | time of peak of plasma IL-10 [3]: 4 h | time of peak of plasma TNFA [3]: 1 h | time of peak of plasma cortisol [3]: 6 h | CD163 detected on monocyte surface (CD163 expression): low levels of CD163

CCCCCCCCCCCCCC(=O)O[C@@H]1[C@@H](C)[C@@]2(O)[C@@H](C=C(CO)C[C@]3(O)C(=O)C(C)=C[C@@H]23)[C@@H]2C(C)(C)[C@]12OC(C)=O [PMA]
shedding of surface CD163 from cells pre-treated with glucocorticoids plus LPS (monocyte surface CD163 [2]): remained sensitive | shedding of surface CD163 from monocytes in culture (monocyte surface CD163 [4]): rapid shedding

C[C@@H]1C[C@H]2[C@@H]3CCC4=CC(=O)C=C[C@]4(C)[C@@]3(F)[C@@H](O)C[C@]2(C)[C@@]1(O)C(=O)CO [DEX]
increase of monocyte CD163 expression [1]: ~7 fold

B1: IL-10: cytokine, originally known as cytokine synthesis inhibitory factor (protein, UniProt P22301 19-178, looked up)
Interleukin-10: SPGQGTQSENSCTHFPGNLPNMLRDLRDAFSRVKTFFQMKDQLDNLLLKESLLEDFKGYLGCQALSEMIQFYLEEVMPQAENQDPDIKAHVNSLGENLKTLRLRLRRCHRFLPCENKSKAVEQVKNAFNKLQEKGIYKAMSEFDIFINYIEAYMTMKIRN
CD163 expression of cytokine given in combination with DEX over DEX treatment alone [1]: significantly increased CD163 expression | increase of monocyte CD163 expression [1]: approximately 4 fold | CD163 expression by western blot (CD163): increased expression of CD163

B2: IL-4: cytokine interleukin-4 (protein, UniProt P05112 25-153, looked up)
Interleukin-4: HKCDITLQEIIKTLNSLTEQKTLCTELTVTDIFAASKNTTEKETFCRAATVLRQFYSHHEKDTRCLGATAQQFHRHKQLIRFLKRLDRNLWGLAGLNSCPVKEANQSTLENFLERLKTIMREKYSKCSS
CD163 expression of cytokine given in combination with DEX over DEX treatment alone [1]: does not enhance CD163 expression
